Drawing on PubChem BioAssay (NCI), this text covers GI50 and TGI for 14 compounds.

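1) Cells in 96-well plates. 2) Compound, 48 h, 5 concentrations. 3) Linear interpolation between surrounding doses. 4) Unreached endpoint = highest concentration. Here, GI50 denotes the concentration required for 50% inhibition of growth. TGI marks complete inhibition of growth.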

Among the test systems are 786-0 renal; RXF 393 renal; SR leukemia; MDA-MB-435; COLO 205 colon; KM12 colon; SNB-75 CNS; K-562 leukemia; HCC-2998 colon; LOX IMVI melanoma.
Experiment in all cases: NCI-60 cell line screen, 48 h

On to `O=C(O)CP(=O)(c1ccccc1)c1ccccc1.O=C(O)CP(=O)(c1ccccc1)c1ccccc1.[Cd]`, for which the GI50 was 19.3 µM in the assay with 786-0 renal; 68.8 µM in the assay on RXF 393 renal; 13.6 µM with SR leukemia; 4.26 µM in the assay with MDA-MB-435; 31.8 µM in the assay on COLO 205 colon; 7.97 µM in the assay with KM12 colon. For the same compound, the GI50 is 16 µM in the assay with SNB-75 CNS and 15.1 µM with K-562 leukemia. Besides, the TGI was 60 µM in the assay with 786-0 renal; > 100 µM in the assay with RXF 393 renal; 31.8 µM in the assay on SR leukemia; 22.4 µM with MDA-MB-435; > 100 µM in the assay with COLO 205 colon; 22.7 µM in the assay on KM12 colon. The TGI in the assay with SNB-75 CNS was determined as 32.4 µM; in the assay on K-562 leukemia it was 36.8 µM.
On to `Cc1ccc(C(CC(=O)c2ccccc2)C(C(=O)c2ccccc2)C(c2ccc(C)cc2)C2C(=O)NC(=S)NC2=O)cc1` (configuration not stated), for which the GI50 in the assay on 786-0 renal is 26.2 µM; in the assay on RXF 393 renal, 30.3 µM; in the assay on MDA-MB-435 it was 14.6 µM; in the assay with HCC-2998 colon, 8.68 µM; with COLO 205 colon, 8.45 µM; in the assay with LOX IMVI melanoma it was 17 µM. In addition, the results for the GI50 in the assay on KM12 colon, with SNB-75 CNS and in the assay with K-562 leukemia were 15 µM, > 50 µM and 26.7 µM, respectively. The TGI in the assay on 786-0 renal was > 50 µM; in the assay with RXF 393 renal, > 50 µM; in the assay on MDA-MB-435 it was > 50 µM; in the assay with HCC-2998 colon, > 50 µM; in the assay on COLO 205 colon, 24.5 µM; in the assay on LOX IMVI melanoma, > 50 µM. In addition, the TGI with KM12 colon, with SNB-75 CNS and with K-562 leukemia was > 50 µM throughout.
In the case of `C=CCCC(O)c1ccc(CCCCCCCCCCC)o1` (configuration not stated), the GI50 in the assay with 786-0 renal is 16.3 µM; with RXF 393 renal, 18.5 µM; in the assay with MDA-MB-435, 16.7 µM; in the assay on HCC-2998 colon it was 18.4 µM; in the assay with COLO 205 colon it was 17.9 µM; in the assay with LOX IMVI melanoma it was 31.8 µM. Moreover, the GI50 with KM12 colon was 20.6 µM; in the assay with SNB-75 CNS, 14.2 µM; with K-562 leukemia it was 38.6 µM. The TGI came out at 30.5 µM in the assay with 786-0 renal; 36.5 µM with RXF 393 renal; 35.3 µM in the assay with MDA-MB-435; 36.5 µM with HCC-2998 colon; 35.3 µM in the assay with COLO 205 colon; 47.2 µM with LOX IMVI melanoma. Further, the TGI is 51 µM in the assay on KM12 colon, 28.6 µM in the assay with SNB-75 CNS and > 100 µM in the assay with K-562 leukemia.
For the compound `Cc1[nH]c2ccccc2c1C1=CC(=O)C=CC1=O`, the GI50 with 786-0 renal was 20.1 µM; in the assay on RXF 393 renal, 10.6 µM; with MDA-MB-435, 5.04 µM; with HCC-2998 colon it was 15.7 µM; in the assay with COLO 205 colon it was 2.48 µM; with LOX IMVI melanoma, 9.77 µM. The results for the GI50 with KM12 colon and with SNB-75 CNS were 12.2 µM and 9.19 µM, respectively. Besides, the TGI in the assay with 786-0 renal came to 43.3 µM; with RXF 393 renal it was 22.9 µM; in the assay on MDA-MB-435, 23.5 µM; in the assay with HCC-2998 colon, 29.4 µM; in the assay with COLO 205 colon, 5.43 µM; with LOX IMVI melanoma it was 22.3 µM. Further, the TGI with KM12 colon came to 25.5 µM; with SNB-75 CNS it was 34.7 µM.
As for `CNc1ccc(C(=O)CC(O)CCC(C)C2OC(=O)CC(O)CC(=O)CC(O)CC(O)CC(O)CC(O)CC3(O)CC(O)C(C(=O)NCCc4ccccn4)C(CC(OC4OC(C)C(O)C(N)C4O)/C=C/C=C/C=C/C=C\C=C/C=C/C=C/C2C)O3)cc1` (configuration not stated), the GI50 was 0.118 µM in the assay with 786-0 renal; 1.05 µM in the assay on RXF 393 renal; 0.128 µM in the assay on MDA-MB-435; 1.59 µM in the assay with HCC-2998 colon; 1.63 µM with COLO 205 colon; 2.11 µM in the assay with LOX IMVI melanoma. For the same compound, the GI50 is 3.6 µM in the assay with KM12 colon, > 50 µM in the assay on SNB-75 CNS and 2.43 µM in the assay on K-562 leukemia. The TGI in the assay with 786-0 renal is 0.361 µM; in the assay with RXF 393 renal, 30.4 µM; in the assay on MDA-MB-435 it was 0.406 µM; with HCC-2998 colon, 4.88 µM; in the assay with COLO 205 colon it was > 50 µM; in the assay with LOX IMVI melanoma, > 50 µM. Further, the TGI with KM12 colon was > 18.9 µM; in the assay with SNB-75 CNS, > 50 µM; in the assay on K-562 leukemia it was > 20.5 µM.
Turning to `Cc1csc(-c2ccc3c(c2)COC3(CCCN(C)C)c2ccc(F)cc2)c1` (configuration not stated), the GI50 in the assay with 786-0 renal is 1.8 µM; with RXF 393 renal, 1.63 µM; with MDA-MB-435, 1.69 µM; in the assay on HCC-2998 colon, 1.79 µM; in the assay on COLO 205 colon, 2.59 µM; with LOX IMVI melanoma it was 1.77 µM. In addition, the values for the GI50 in the assay with KM12 colon, with SNB-75 CNS and in the assay on K-562 leukemia were 1.95 µM, 1.2 µM and 2.29 µM, respectively. Besides, the TGI with 786-0 renal was 3.39 µM; in the assay with RXF 393 renal it was 3.04 µM; in the assay with MDA-MB-435, 3.08 µM; with HCC-2998 colon, 3.3 µM; with COLO 205 colon, 5.64 µM; with LOX IMVI melanoma it was 3.24 µM. In addition, the TGI was 3.75 µM in the assay on KM12 colon, 2.61 µM in the assay with SNB-75 CNS and 5.18 µM with K-562 leukemia.
As for `CCc1cccc(CC)c1NC(=O)c1ccn2c1CCc1cnc(Nc3ccc(N4CCN(C)CC4)cc3OC)nc1-2`, the GI50 in the assay on 786-0 renal is 1.66 µM; with RXF 393 renal, 1.58 µM; in the assay with MDA-MB-435 it was 2.51 µM; with HCC-2998 colon, 2.28 µM; with COLO 205 colon, 0.0231 µM; with KM12 colon, 2.63 µM. In addition, in the assay on SNB-75 CNS, the GI50 was 1.87 µM. Besides, the TGI with 786-0 renal was 3.84 µM; in the assay with RXF 393 renal, 3.08 µM; in the assay on MDA-MB-435 it was 11.7 µM; in the assay on HCC-2998 colon, 8.63 µM; with COLO 205 colon, 2.36 µM; with KM12 colon, 14.8 µM. Besides, the TGI with SNB-75 CNS worked out at 7.47 µM.
On to `O=C(OC(CNc1c(C(=O)c2ccccc2)c(=O)n(Cc2ccccc2)c(=O)n1Cc1ccccc1)CN1CCCCC1)c1ccccc1` (configuration not stated), for which the GI50 is 14.9 µM in the assay with 786-0 renal; 14.7 µM in the assay on RXF 393 renal; 18.5 µM with MDA-MB-435; 12.1 µM in the assay with HCC-2998 colon; 19.6 µM in the assay on COLO 205 colon; 12.8 µM in the assay with LOX IMVI melanoma. The values for the GI50 in the assay with KM12 colon and with K-562 leukemia were 19.9 µM and 14.9 µM, respectively. The TGI came to 29.4 µM in the assay with 786-0 renal; 29.5 µM in the assay with RXF 393 renal; 37.7 µM with MDA-MB-435; 24.4 µM in the assay on HCC-2998 colon; 47.8 µM in the assay on COLO 205 colon; 25.4 µM with LOX IMVI melanoma. For the same compound, the TGI in the assay with KM12 colon came to 40.2 µM; in the assay with K-562 leukemia, 31.3 µM.
`NCC(=O)NC(CO)C(=O)O` (configuration not stated): the TGI in the assay with 786-0 renal, in the assay with RXF 393 renal, in the assay on MDA-MB-435, in the assay with HCC-2998 colon, in the assay with COLO 205 colon and with LOX IMVI melanoma was > 100 µM each time. Also, the TGI in the assay with KM12 colon, in the assay with SNB-75 CNS and in the assay with K-562 leukemia was > 100 µM each time.
For `N=C(N)c1ccc(-c2ccc(-c3ccc(Cl)c(Cl)c3)o2)nc1`, the GI50 in the assay on 786-0 renal was 1.99 µM; with RXF 393 renal, 1.65 µM; with SR leukemia, 0.559 µM; in the assay with MDA-MB-435 it was 1.78 µM; with SNB-75 CNS it was 1.35 µM. Besides, the TGI was 3.83 µM with 786-0 renal; 3.58 µM in the assay on RXF 393 renal; > 100 µM in the assay on SR leukemia; 3.25 µM with MDA-MB-435; 2.69 µM in the assay with SNB-75 CNS.
With `Cc1ccc(C(O)/C(=N/N)c2nc3ccc([N+](=O)[O-])cc3[nH]c2=O)cc1` (configuration not stated), the TGI in the assay with 786-0 renal, with RXF 393 renal, in the assay with SR leukemia, in the assay with HCC-2998 colon, with COLO 205 colon and in the assay on LOX IMVI melanoma was > 100 µM in each case. In addition, the TGI in the assay with KM12 colon, with SNB-75 CNS and with K-562 leukemia was > 100 µM in each case.
Consider `CCOc1ccc(N=Nc2c(-c3ccccc3)nn(C(=O)CC(=O)Nc3cccc(C)c3)c2-c2ccccc2)cc1`, for which the TGI in the assay with 786-0 renal, in the assay with RXF 393 renal, with SR leukemia, with HCC-2998 colon, in the assay with COLO 205 colon and in the assay on LOX IMVI melanoma was > 100 µM in each case. In addition, the TGI with KM12 colon, in the assay with SNB-75 CNS and with K-562 leukemia was > 100 µM throughout.
In the case of `COCO[C@@H]1CC2C=Nc3cc(OCc4ccccc4)c(OC)cc3C(=O)N2C1` (some centres not stated), the GI50 in the assay with 786-0 renal was 1.3 µM; in the assay with RXF 393 renal it was 0.242 µM; in the assay with MDA-MB-435, 0.455 µM; with HCC-2998 colon, 0.519 µM; in the assay on COLO 205 colon, 0.181 µM; in the assay on LOX IMVI melanoma, 0.305 µM. Also, the GI50 in the assay on KM12 colon was 0.578 µM; in the assay with SNB-75 CNS it was 1.09 µM; in the assay on K-562 leukemia it was 0.45 µM. The TGI turned out to be 30.9 µM with 786-0 renal; 0.972 µM with RXF 393 renal; 1.86 µM in the assay on MDA-MB-435; 2.63 µM with HCC-2998 colon; 0.386 µM with COLO 205 colon; 10.4 µM in the assay on LOX IMVI melanoma. Further, the TGI in the assay on KM12 colon was 10.6 µM; in the assay on K-562 leukemia, > 100 µM.
On to `O=c1[nH]c(=O)n(C2OC(CO)C(O)C2O)cc1OCc1ccccc1` (configuration not stated), for which the TGI in the assay on 786-0 renal was > 100 µM; in the assay on RXF 393 renal it was > 83.5 µM; with SR leukemia, > 67.5 µM; with HCC-2998 colon, > 100 µM; in the assay on COLO 205 colon, > 85.2 µM; with LOX IMVI melanoma, > 31.6 µM. Moreover, the TGI in the assay with KM12 colon, in the assay with SNB-75 CNS and in the assay with K-562 leukemia was > 100 µM throughout.
